In brackets after ≈: the same amount, converted by molar mass.
Assays:
[1] = test system: E. coli TISTR 887; test: Agar well diffusion assay; assay type: cell-based, Escherichia coli
Description: (§1) To identify potential active bacterial isolates, the cross-streak and agar well diffusion method was employed against S. aureus TISTR 517 and E. coli TISTR 887, following the protocol described in a previous study. The production kinetics of antibacterial substances by the active bacterial isolates were investigated. Single colonies were suspended in 0.9% NaCl solution, and the turbidity was adjusted to an optical density (OD) of 0.35 at 625 nm. Two milliliters of the cell suspension were inoculated into 98 mL of LB broth and incubated at 37 °C with shaking at 150 rpm for seven days. At each time interval, bacterial growth was evaluated by measuring the OD at 625 nm using a UV-Vis spectrophotometer (JASCO Corporation, Tokyo, Japan). The cell-free supernatant (CFS) was obtained by centrifuging the culture at 10,000× g at 4 °C for 15 min. Subsequently, 100 µL of the supernatant was loaded into wells on MH agar plates precultured with tested pathogens. Colistin and vancomycin served as positive controls in agar well diffusion assay.

[2] = test system: P. aeruginosa TISTR 357; test: Agar well diffusion assay; assay type: cell-based, Pseudomonas aeruginosa
Description: as §1

[3] = test system: K. pneumoniae TISTR 1383; test: Agar well diffusion assay; assay type: cell-based, Klebsiella pneumoniae
Description: as §1

[4] = test system: MRSA Strain 2468; test: Agar well diffusion assay; assay type: cell-based, Staphylococcus aureus
Description: as §1

[5] = test system: S. aureus TISTR 517; test: Agar well diffusion assay; assay type: cell-based, Staphylococcus aureus
Description: as §1

[6] = test system: MRSA Strain 2468; test: microbe, parasite or virus in culture; assay type: cell-based, Staphylococcus aureus; details: Staphylococcus aureus, MRSA, 24 h
Experimental: (§2) A bacterial suspension was prepared by adjusting its turbidity at OD 625 nm to 0.1 and subsequently made a 20-fold dilution using Cation-Adjusted Mueller–Hinton broth (CAHMB) as a diluent. […] The diluted cell suspension (10 µL) was added to each well, and the plates were incubated at 37 °C for 24 h. The CAMHB alone was used as a negative control, while CAMHB containing colistin or vancomycin served as a positive control.

[7] = test system: S. aureus TISTR 517; test: microbe, parasite or virus in culture; assay type: cell-based, Staphylococcus aureus; details: Staphylococcus aureus, TISTR517, 24 h, read-out: MBC, S. aureus TISTR 517
Experimental: as §2

[8] = test system: E. coli TISTR 887; assay type: cell-based, Escherichia coli; details: broth microdilution, 37 °C, 24 h, triplicate
Experimental: as §2

[9] = test system: P. aeruginosa TISTR 357; assay type: cell-based, Pseudomonas aeruginosa; details: broth microdilution, 37 °C, 24 h, triplicate
Experimental: as §2

[10] = test system: K. pneumoniae TISTR 1383; assay type: cell-based, Klebsiella pneumoniae; details: broth microdilution, 37 °C, 24 h, triplicate
Experimental: as §2

[11] = agar well diffusion, MH agar, CFS obtained at 24 h of cultivation, 100 µL per well, colistin 25 μg, vancomycin 30 μg, mean ± SD, n = 3

Molecule	zone of inhibition at 30 µg/disc ([1]; Escherichia coli, TISTR887, 24 h, read-out: Zone of Inhibition, E. coli TISTR 887) [mm]	zone of inhibition at 30 µg/disc ([2]; Pseudomonas aeruginosa, TISTR357, 24 h, read-out: Zone of Inhibition, P. aeruginosa TISTR 357) [mm]	zone of inhibition at 30 µg/disc ([3]; Klebsiella pneumoniae, TISTR1383, 24 h, read-out: Zone of Inhibition, K. pneumoniae TISTR 1383) [mm]	zone of inhibition at 30 µg/disc ([4]; Staphylococcus aureus, MRSA, 24 h, read-out: Zone of Inhibition, MRSA Strain 2468) [mm]	zone of inhibition at 30 µg/disc ([5]; Staphylococcus aureus, TISTR517, 24 h, read-out: Zone of Inhibition, S. aureus TISTR 517) [mm]	MBC ([6]; read-out: MBC, MRSA strain 2468) [µg/mL]	MIC ([6]; read-out: MIC, MRSA strain 2468) [µg/mL]	MBC [7] [µg/mL]	Zone of Inhibition, E. coli TISTR 887 [1, 11] [mm]	Zone of Inhibition, P. aeruginosa TISTR 357 [2, 11] [mm]	Zone of Inhibition, K. pneumoniae TISTR 1383 [3, 11] [mm]	Zone of Inhibition, MRSA Strain 2468 [4, 11] [mm]	Zone of Inhibition, S. aureus TISTR 517 [5, 11] [mm]	MIC, E. coli TISTR 887 ([8]; CAMHB) [µg/mL]	MBC, E. coli TISTR 887 ([8]; then plated on MH agar) [µg/mL]	MIC, P. aeruginosa TISTR 357 ([9]; CAMHB) [µg/mL]	MBC, P. aeruginosa TISTR 357 ([9]; then plated on MH agar) [µg/mL]	MIC, K. pneumoniae TISTR 1383 ([10]; CAMHB) [µg/mL]	MBC, K. pneumoniae TISTR 1383 ([10]; then plated on MH agar) [µg/mL]
CN[C@H](CC(C)C)C(=O)N[C@H]1C(=O)N[C@@H](CC(N)=O)C(=O)N[C@H]2C(=O)N[C@H]3C(=O)N[C@H](C(=O)N[C@H](C(=O)O)c4cc(O)cc(O)c4-c4cc3ccc4O)[C@H](O)c3ccc(c(Cl)c3)Oc3cc2cc(c3O[C@@H]2O[C@H](CO)[C@@H](O)[C@H](O)[C@H]2O[C@H]2C[C@](C)(N)[C@H](O)[C@H](C)O2)Oc2ccc(cc2Cl)[C@H]1O [Vancomycin]	0	0	0	29 ± 0.43	28.5 ± 0.22	4 (≈ 2.76 µM)	4 (≈ 2.76 µM)	2 (≈ 1.38 µM)	–	–	–	–	–	–	–	–	–	–	–
Colistin [reference compound]	–	–	–	–	–	–	–	–	26.52 ± 0.43	29.41 ± 0.65	26.67 ± 0.22	0.00 ± 0.00	0.00 ± 0.00	1	1	2	2	1	1
